According to paper PMC10054226, “Rapid and Efficient Access to Novel Bio-Inspired 3-Dimensional Tricyclic SpiroLactams as Privileged Structures via Meyers’ Lactamization” (Pharmaceuticals, 2023):

How the values were obtained:
[1] = test system: metastatic breast cancer cell lines (MDA-MB-231); set-up: method as in PMID 21158420; conditions: cited from earlier work
[2] = Aqueous solubility in PBS at pH 7.4 (LC-MS/MS, AUC PBS/AUC MeOH x 200); format: physicochemical; conditions: aqueous buffer, kinetic from dmso stock; PBS at pH 7.4, 24 h shaking at room temperature, triplicate
Protocol: To determine compound solubility, 10 mM of the compound 44 in DMSO was diluted 50-fold either in PBS at pH 7.4 or in organic MeOH solvent in PP tubes (n = 3 for PBS and […]). The tubes were gently shaken for 24 h at room temperature. Then, the three PBS tubes and three of the six methanol tubes were centrifuged for 5 min at 4000 rpm and filtered over 0.45 μm filters (Millex-LH Millipore). The sample was diluted 50-fold in MeOH before LC-MS/MS analysis. The test was performed in triplicate. The solubility was determined by the following ratio: (AUCPBS/AUCMeOH) × 200.

[3] = LogD, octanol:PBS 1:1 at pH 7.4 (LC-MS/MS); format: physicochemical; conditions: octanol:PBS 1:1 at pH 7.4, 2 h at room temperature, triplicate
Protocol: To determine compound LogD, 10 mM of the compound 44 in DMSO was diluted 50-fold in a mixture of 1:1 octanol:PBS at pH 7.4. The mixture was gently shaken for 2 h at room temperature. Each sample was then diluted 50-fold in MeOH before LC-MS/MS analysis. For each compound, the test was performed in triplicate. LogD was determined as the logarithm of the ratio of product concentrations in octanol and PBS, respectively, determined by mass signals.

Question: For `C=C1CCC2C(C)(C)CCCC23C(=O)OCC13` (stereo not drawn) [Antrocin], which “activity against the proliferation of metastatic breast cancer cell lines” value [1] is on record?
Answer: Its value is “significant activity”.

Question: For `CC(C)[C@H]1CO[C@]23CCNC[C@H]2CCC(=O)N13` [Compound 44, (3S,7aR,11aR)-3-isopropyl-3,6,7,7a,8,9,10,11-octahydro-2H-oxazolo[2,3-j][1,6]naphthyridin-5-one;formic acid], which solubility at 24 h [2] is on record?
Answer: The solubility at 24 h was > 200 µM.

Question: And the logD at 2 h [3]?
Answer: Its logD at 2 h is -1.72.
